In BindingDB's records for doi:10.1021/jm960083n (Dupont Pharmaceuticals, 1996):
pKi: −log10 of the molar value.

Molecular target: T1, Dimer of Gag-Pol polyprotein [489-587] (Human immunodeficiency virus 1, UniProt P12497)
T1 construct: 489-587
Assay: Protease Inhibition Assay
Conditions: pH 5.5; 37 °C
Description: Inhibition of HIV protease was measured by assay of the cleavage of a fluorescent peptide substrate. The fluorescent product (2-aminobenzoyl-Ala-Thr-His-Gln-Val-Tyr) was separated from the fluorescent substrate by anion-exchange HPLC on a Mono-Q anion-exchange column (Pharmacia), and fluorescence was monitored at an excitation wavelength of 330 nm and an emission wavelength of 430 nm. Ki values for inhibitor binding were estimated at fixed concentrations of substrate and inhibitor from fractional activity measurements by use of the modified Michaelis-Menten equation.

SMILES | pKi
COc1cc(C[C@@H]2[C@H](O)[C@@H](O)[C@@H](Cc3cc(OC)cc(OC)c3)N(Cc3cccc(C(C)=O)c3)C(=O)N2Cc2cccc(C(C)=O)c2)cc(OC)c1 [(4R,5S,6S,7R)-4,7-bis[(3,5-dimethoxyphenyl)methyl]-1,3-bis[(3-acetylphenyl)methyl]-5,6-dihydroxy-1,3-diazepan-2-one] | 9.40
CC(=O)c1cccc(CN2C(=O)N(Cc3cccc(C(C)=O)c3)[C@H](Cc3ccc4c(c3)OCO4)[C@H](O)[C@@H](O)[C@H]2Cc2ccc3c(c2)OCO3)c1 [(4R,5S,6S,7R)-Hexahydro-5,6-dihydroxy-1,3-bis(3-acetylbenzyl)-4,7-bis((3,4-(methylenedioxy)phenyl)methyl)-2H-1,3-diazapin-2-one] | 10.37
CC(=O)c1cccc(CN2C(=O)N(Cc3cccc(C(C)=O)c3)[C@H](Cc3ccc4c(c3)N(C)CCO4)[C@H](O)[C@@H](O)[C@H]2Cc2ccc3c(c2)N(C)CCO3)c1 [(4R,5S,6S,7R)-Hexahydro-5,6-dihydroxy-1,3-bis(3-acetylbenzyl)-4,7-bis((4-methyl-3,4-dihydro-2H-benzo[b][1,4]-oxazin-6-yl)methyl)-2H-1,3-diazapin-2-one] | 10.10
CC(=O)c1cc(CN2C(=O)N(Cc3ccc(F)c(C(C)=O)c3)[C@H](Cc3ccc4c(c3)OCO4)[C@H](O)[C@@H](O)[C@H]2Cc2ccc3c(c2)OCO3)ccc1F [(4R,5S,6S,7R)-Hexahydro-5,6-dihydroxy-1,3-bis(4-fluoro-3-acetylbenzyl)-4,7-bis((3,4-(methylenedioxy)phenyl)methyl)-2H-1,3-diazapin-2-one] | 8.82
